# Laboratory results reported in patent US20170107407A1, “ADHESIVE COMPOSITION AND POLARIZING PLATE COMPRISING SAME” (DONGWOO FINE-CHEM CO., LTD., priority 2014, published 2017).
# Assay: Evaluation of solubility in methyl ethyl ketone
# Conditions: 1 g compound in 100 g methyl ethyl ketone, shaken 1 hour, left 24 hours at room temperature, visual
# Experimental: Each compound (1 g) listed in Table 1 and methyl ethyl ketone (MEK, 100 g) were added to a 250 ml bottle and covered with a cap to inhibit the volatilization of the solvent.
row,Solubility,SMILES
1,∘,CCOCCOCCOCC(=O)[O-].[Li+] [Formula A]
2,∘,CCOCCOCCOCC(=O)[O-].[Na+] [Formula B]
3,∘,CCCCOCCOCC(=O)[O-].[Na+] [Formula C]
